According to US12435046B2, “Alkynyl quinazoline compounds” (Black Diamond Therapeutics, Inc., priority 2019, dated 2025):

Assays:
Type in all cases: cell-based
Conditions in all cases: Table A; BaF3 cells, 3 days
[1] = target: T1, EGFR wt (Homo sapiens, UniProt P00533); assay: BaF3 cell proliferation assay (CellTiterGlo), EGFR wt
T1 construct: expressed in transfected cells; host or cells: BaF3 (murine pro-B) cells, retroviral transduction with pMXs-IRES-Blasticidin
Protocol: (§1) Retroviral Production: EGFR mutants were subcloned into pMXs-IRES-Blasticidin (RTV-016, Cell Biolabs, San Diego, CA). Retroviral expression vector retrovirus was produced by transient transfection of HEK 293T cells with the retroviral EGFR mutant expression vector pMXs-IRES-Blasticidin (RTV-016, Cell Biolabs), pCMV-Gag-Pol vector and pCMV-VSV-G-Envelope vector. Briefly, HEK 293T/17 cells were plated in 100 mm collagen coated plate (354450, Corning Life Sciences, Tewksbury, MA) (4×10^5 per plate) and incubated overnight. The next day, retroviral plasmids (3 ng of EGFR mutant, 1.0 ng of pCMV-Gag-Pol and 0.5 ng pCMV-VSV-G) were mixed in 500 n1 of Optimem (31985, Life Technologies). The mixture was incubated at room temperature for 5 min and then added to Optimem containing transfection reagent Lipofectamine (11668, Invitrogen) and incubated for 20 minutes. Mixture was then added dropwise to HEK 293T cells. The next day the medium was replaced with fresh culture medium and retrovirus was harvested @ 24 and 48 hrs.
(§2) Generation of EGFR mutant stable cell lines: BaF3 cells (1.5E5 cells) were infected with 1 ml of viral supernatant supplemented with 8 ng/ml polybrene by centrifuging for 30 min at 1000 rpm. Cells were placed in a 37° C. incubator overnight. Cells were then spun for 5 minutes to pellet the cells. Supernatant was removed and cells re-infected a fresh 1 ml of viral supernatant supplemented with 8 ng/ml polybrene by centrifuging for 30 min at 1000 rpm. Cells were placed in 37° C. incubator overnight. Cells were then maintained in RPMI containing 10% Heat Inactivated FBS, 2% L-glutamine containing 10 ng/ml IL-3. After 48 hours cells were selected for retroviral infection in 10 […] for one week. Blasticidin resistant populations were washed twice in phosphate buffered saline before plating in media lacking IL-3 to select for IL-3 independent growth.
(§3) Assay for cell proliferation: BaF3 cell lines were resuspended at 1.3E5 c/ml in RPMI containing 10% Heat Inactivated FBS, 2% L-glutamine and 1% Pen/Strep and dispensed in triplicate (17.5E4 c/well) into 96 well plates. To determine the effect of drug on cell proliferation, cells incubated for 3 days in the presence of vehicle control or test drug at varying concentrations. Inhibition of cell growth was determined by luminescent quantification of intracellular ATP content using CellTiterGlo (Promega), according to the protocol provided by the manufacturer. Comparison of cell number on day 0 versus 72 hours post drug treatment was used to plot dose-response curves. The number of viable cells was determined and normalized to vehicle-treated controls. Inhibition of proliferation, relative to vehicle-treated controls was expressed as a fraction of 1 and graphed using PRISM® software (Graphpad Software, San Diego, CA). EC50 values were determined with the same application.

[2] = target: T2, EGFR V3 (Homo sapiens, UniProt P00533, DELINS30-297G); assay: BaF3 cell proliferation assay (CellTiterGlo), EGFR V3
T2 construct: expressed in transfected cells; host or cells: BaF3 (murine pro-B) cells, retroviral transduction with pMXs-IRES-Blasticidin
Protocol: as §1, §2, §3

[3] = target: T3, HER2 YVMA (Homo sapiens, UniProt P04626, INS775YVMA); assay: BaF3 cell proliferation assay (CellTiterGlo), HER2 YVMA
T3 construct: expressed in transfected cells; host or cells: BaF3 (murine pro-B) cells

[4] = target: T4, HER2 S310F (Homo sapiens, UniProt P04626, S310F); assay: BaF3 cell proliferation assay (CellTiterGlo), HER2 S310F
T4 construct: expressed in transfected cells; host or cells: BaF3 (murine pro-B) cells
T4 sequence (P04626 23-1255 S310F): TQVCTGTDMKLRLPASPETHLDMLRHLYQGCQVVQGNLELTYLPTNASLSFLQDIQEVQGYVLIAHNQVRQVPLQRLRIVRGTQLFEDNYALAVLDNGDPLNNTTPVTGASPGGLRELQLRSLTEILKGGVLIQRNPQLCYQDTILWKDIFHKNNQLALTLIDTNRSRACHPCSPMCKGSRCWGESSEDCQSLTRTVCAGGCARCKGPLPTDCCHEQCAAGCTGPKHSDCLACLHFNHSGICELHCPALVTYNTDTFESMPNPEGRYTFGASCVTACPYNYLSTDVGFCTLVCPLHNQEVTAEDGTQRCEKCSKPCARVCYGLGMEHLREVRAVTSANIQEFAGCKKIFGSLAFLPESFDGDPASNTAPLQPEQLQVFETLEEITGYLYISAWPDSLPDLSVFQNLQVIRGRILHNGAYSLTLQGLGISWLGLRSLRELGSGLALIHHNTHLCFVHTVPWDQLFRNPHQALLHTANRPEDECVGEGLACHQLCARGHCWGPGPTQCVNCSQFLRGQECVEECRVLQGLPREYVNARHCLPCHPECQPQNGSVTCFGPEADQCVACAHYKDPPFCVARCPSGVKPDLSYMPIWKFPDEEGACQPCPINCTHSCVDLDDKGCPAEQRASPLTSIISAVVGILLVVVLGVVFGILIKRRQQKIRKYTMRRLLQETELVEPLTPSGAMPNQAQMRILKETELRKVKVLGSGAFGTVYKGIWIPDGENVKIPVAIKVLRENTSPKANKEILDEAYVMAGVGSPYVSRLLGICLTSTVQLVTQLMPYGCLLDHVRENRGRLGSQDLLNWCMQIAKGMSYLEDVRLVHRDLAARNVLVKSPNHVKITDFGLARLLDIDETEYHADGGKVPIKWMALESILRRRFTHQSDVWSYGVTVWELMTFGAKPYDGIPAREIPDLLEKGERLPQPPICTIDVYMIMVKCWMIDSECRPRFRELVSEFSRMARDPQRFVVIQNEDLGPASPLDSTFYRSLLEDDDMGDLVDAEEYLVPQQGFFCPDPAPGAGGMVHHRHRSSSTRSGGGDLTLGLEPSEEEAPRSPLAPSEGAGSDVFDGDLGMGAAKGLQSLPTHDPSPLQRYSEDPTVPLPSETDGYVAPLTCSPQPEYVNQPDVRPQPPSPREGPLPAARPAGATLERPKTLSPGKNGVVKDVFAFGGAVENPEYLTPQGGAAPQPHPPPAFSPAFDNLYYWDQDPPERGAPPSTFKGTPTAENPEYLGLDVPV

T2 sequence (P00533 with tags, fused parts or gaps DELINS30-297G): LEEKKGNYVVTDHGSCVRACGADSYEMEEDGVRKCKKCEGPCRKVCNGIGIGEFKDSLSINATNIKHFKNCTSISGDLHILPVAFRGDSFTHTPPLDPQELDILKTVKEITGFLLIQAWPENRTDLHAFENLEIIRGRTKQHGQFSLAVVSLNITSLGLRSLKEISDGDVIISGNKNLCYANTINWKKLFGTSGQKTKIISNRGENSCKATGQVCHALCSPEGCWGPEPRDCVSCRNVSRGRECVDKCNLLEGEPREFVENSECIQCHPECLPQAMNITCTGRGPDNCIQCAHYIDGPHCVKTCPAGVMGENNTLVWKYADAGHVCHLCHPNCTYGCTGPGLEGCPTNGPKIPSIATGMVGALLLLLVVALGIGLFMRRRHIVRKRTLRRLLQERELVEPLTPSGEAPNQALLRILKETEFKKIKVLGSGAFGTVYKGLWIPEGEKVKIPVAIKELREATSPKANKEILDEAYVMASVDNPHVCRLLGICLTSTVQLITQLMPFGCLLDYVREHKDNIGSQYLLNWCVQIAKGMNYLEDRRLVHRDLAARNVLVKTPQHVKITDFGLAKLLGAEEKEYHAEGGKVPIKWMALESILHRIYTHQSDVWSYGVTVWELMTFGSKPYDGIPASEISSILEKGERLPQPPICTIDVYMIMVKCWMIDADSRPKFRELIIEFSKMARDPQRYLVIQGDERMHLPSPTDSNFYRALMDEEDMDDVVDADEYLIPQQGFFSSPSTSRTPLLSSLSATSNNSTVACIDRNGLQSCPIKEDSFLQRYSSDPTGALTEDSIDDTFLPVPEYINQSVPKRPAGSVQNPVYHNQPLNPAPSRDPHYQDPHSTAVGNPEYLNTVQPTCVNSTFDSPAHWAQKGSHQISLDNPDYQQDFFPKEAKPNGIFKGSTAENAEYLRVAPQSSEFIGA
T3 sequence (P04626 with tags, fused parts or gaps INS775YVMA): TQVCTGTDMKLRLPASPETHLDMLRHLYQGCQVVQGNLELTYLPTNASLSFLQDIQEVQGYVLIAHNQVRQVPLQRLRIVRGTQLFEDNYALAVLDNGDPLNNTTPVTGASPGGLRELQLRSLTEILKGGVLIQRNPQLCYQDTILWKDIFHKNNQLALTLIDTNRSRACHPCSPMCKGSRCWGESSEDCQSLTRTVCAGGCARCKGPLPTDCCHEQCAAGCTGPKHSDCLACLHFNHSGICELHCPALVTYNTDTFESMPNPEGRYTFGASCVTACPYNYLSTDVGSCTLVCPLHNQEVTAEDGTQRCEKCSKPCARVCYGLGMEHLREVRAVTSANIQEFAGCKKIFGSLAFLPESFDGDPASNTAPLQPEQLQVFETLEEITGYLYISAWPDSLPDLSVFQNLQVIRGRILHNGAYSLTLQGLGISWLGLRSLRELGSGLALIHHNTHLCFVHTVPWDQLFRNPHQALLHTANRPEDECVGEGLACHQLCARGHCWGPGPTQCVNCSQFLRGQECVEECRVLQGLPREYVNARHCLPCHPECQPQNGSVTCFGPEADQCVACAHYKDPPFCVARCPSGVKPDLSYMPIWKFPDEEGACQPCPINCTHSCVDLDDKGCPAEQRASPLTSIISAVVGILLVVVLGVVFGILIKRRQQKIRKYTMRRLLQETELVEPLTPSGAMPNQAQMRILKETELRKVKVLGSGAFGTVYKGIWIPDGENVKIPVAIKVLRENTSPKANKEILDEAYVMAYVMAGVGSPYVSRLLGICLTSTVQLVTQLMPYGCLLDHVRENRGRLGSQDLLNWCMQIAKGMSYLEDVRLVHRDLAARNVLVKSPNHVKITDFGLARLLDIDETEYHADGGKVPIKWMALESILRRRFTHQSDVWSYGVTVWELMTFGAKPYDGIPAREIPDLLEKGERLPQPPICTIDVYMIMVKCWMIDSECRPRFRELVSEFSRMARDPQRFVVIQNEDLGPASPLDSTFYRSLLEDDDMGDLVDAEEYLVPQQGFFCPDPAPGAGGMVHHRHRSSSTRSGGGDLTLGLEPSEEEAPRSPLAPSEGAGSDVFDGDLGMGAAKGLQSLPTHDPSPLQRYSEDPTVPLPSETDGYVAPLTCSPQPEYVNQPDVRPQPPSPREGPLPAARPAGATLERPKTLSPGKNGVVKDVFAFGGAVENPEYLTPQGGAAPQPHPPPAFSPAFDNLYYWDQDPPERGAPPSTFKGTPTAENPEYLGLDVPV
T1 sequence (P00533 25-1210): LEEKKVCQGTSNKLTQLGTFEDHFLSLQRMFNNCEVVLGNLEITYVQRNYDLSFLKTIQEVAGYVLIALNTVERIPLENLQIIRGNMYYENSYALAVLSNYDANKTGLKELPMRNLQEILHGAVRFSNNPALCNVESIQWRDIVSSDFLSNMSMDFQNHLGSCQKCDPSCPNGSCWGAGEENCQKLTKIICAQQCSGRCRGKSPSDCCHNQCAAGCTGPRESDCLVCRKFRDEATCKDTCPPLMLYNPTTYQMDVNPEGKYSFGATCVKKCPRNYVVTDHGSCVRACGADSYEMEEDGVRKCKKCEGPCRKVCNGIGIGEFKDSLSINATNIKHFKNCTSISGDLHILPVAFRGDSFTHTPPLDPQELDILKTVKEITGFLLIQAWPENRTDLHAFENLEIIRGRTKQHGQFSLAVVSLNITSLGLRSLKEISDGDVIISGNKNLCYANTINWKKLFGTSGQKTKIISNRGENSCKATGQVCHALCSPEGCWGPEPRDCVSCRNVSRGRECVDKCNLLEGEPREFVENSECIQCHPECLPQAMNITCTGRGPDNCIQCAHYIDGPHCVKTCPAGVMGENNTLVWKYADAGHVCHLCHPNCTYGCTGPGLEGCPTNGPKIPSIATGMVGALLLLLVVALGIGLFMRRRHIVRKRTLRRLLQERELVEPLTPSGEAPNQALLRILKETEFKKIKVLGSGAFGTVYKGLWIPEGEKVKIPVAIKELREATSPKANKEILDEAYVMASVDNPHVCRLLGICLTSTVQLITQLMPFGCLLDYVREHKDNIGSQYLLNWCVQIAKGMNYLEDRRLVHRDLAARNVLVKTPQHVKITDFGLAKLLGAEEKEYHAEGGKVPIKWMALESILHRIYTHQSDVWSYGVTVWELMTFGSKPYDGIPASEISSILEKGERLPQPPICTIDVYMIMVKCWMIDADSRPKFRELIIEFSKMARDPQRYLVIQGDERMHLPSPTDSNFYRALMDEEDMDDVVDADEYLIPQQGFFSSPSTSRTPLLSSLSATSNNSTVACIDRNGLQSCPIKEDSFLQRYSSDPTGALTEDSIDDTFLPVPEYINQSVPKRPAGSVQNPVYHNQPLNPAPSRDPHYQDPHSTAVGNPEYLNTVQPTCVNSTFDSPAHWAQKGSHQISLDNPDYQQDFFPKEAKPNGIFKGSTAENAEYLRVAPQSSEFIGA

| Compound | IC50 [1] [nM] | IC50 [2] [nM] | IC50 [3] [nM] | IC50 [4] [nM] |
| --- | --- | --- | --- | --- |
| C=CC(=O)Nc1cc2c(Nc3ccc(Oc4ccn5ncnc5c4)c(C)c3)ncnc2cc1C#CC12CC1CN(C)C2 (stereo not shown) [Compound 28, N-(4-((4-([1,2,4]triazolo[1,5-a]pyridin-7-yloxy)-3-methylphenyl)amino)-7-((3-methyl-3-azabicyclo[3.1.0]hexan-1-yl)ethynyl)quinazolin-6-yl)acrylamide] | > 500 | ≤ 50 | ≤ 50 |  |
| CN1C[C@H]2C[C@@]2(C#Cc2cc3ncnc(Nc4cccc(Cl)c4F)c3cc2NC(=O)/C=C/CN2C3COCC2C3)C1 [Compound 20, (E)-4-(3-oxa-6-azabicyclo[3.1.1]heptan-6-yl)-N-(4-((3-chloro-2-fluorophenyl)amino)-7-(((1R,5S)-3-methyl-3-azabicyclo[3.1.0]hexan-1-yl)ethynyl)quinazolin-6-yl)but-2-enamide] | 100 to 500 | ≤ 50 |  | ≤ 50 |
| COC(=O)Nc1cc2c(Nc3cccc(Cl)c3F)ncnc2cc1C#CC1(C)CCN(C)C1 (stereo not shown) [Compound 43, Methyl (4-((3-chloro-2-fluorophenyl)amino)-7-((1,3-dimethylpyrrolidin-3-yl)ethynyl)quinazolin-6-yl)carbamate] | ≤ 50 | > 500 | > 500 |  |
| CC#CC(=O)Nc1cc2c(Nc3cccc(Cl)c3F)ncnc2cc1C#C[C@@]12C[C@@H]1CN(C)C2 [Compound 38, N-(4-((3-chloro-2-fluorophenyl)amino)-7-(((1R,5S)-3-methyl-3-azabicyclo[3.1.0]hexan-1-yl)ethynyl)quinazolin-6-yl)but-2-ynamide] | 50 to 100 | ≤ 50 | 100 to 500 |  |
| CC(C)/C=C/C(=O)Nc1cc2c(Nc3cccc(Cl)c3F)ncnc2cc1C#C[C@@]1(C)CCN(C)C1 [Compound 39, (E)-N-[4-(3-chloro-2-fluoro-anilino)-7-[2-[(3R)-1,3-dimethylpyrrolidin-3-yl]ethynyl]quinazolin-6-yl]-4-methyl-pent-2-enamide] | 50 to 100 | > 500 | > 500 |  |
| CN1CC[C@](C)(C#Cc2cc3ncnc(Nc4cccc(Cl)c4F)c3cc2NC(=O)CC#N)C1 [Compound No. 84, (R)—N-(4-((3-chloro-2-fluorophenyl)amino)-7-((1,3-dimethylpyrrolidin-3-yl)ethynyl)quinazolin-6-yl)-2-cyanoacetamide] | > 500 | > 500 | > 500 |  |
| C=CC(=O)Nc1cc2c(Nc3cccc(Cl)c3F)ncnc2cc1C#CC1(C)COC1 [Compound 30, N-(4-((3-chloro-2-fluorophenyl)amino)-7-((3-methyloxetan-3-yl)ethynyl)quinazolin-6-yl)acrylamide] | 50 to 100 | ≤ 50 | 50 to 100 |  |
| C=CC(=O)Nc1cc2c(Nc3cccc(Cl)c3F)ncnc2cc1C#CC1(C)CN(C)CCO1 (stereo not shown) [Compound 32, N-(4-((3-chloro-2-fluorophenyl)amino)-7-((2,4-dimethylmorpholin-2-yl)ethynyl)quinazolin-6-yl)acrylamide] | > 500 | ≤ 50 | > 500 |  |
| CN1C[C@H]2C[C@@]2(C#Cc2cc3ncnc(Nc4cccc(Cl)c4F)c3cc2NC(=O)C(F)Cl)C1 (stereo partly drawn) [Compound 23, 2-chloro-N-(4-((3-chloro-2-fluorophenyl)-amino)-7-(((1R,5S)-3-methyl-3-azabicyclo[3.1.0]hexan-1-yl)ethynyl)quinazolin-6-yl)-2-fluoroacetamide] | 50 to 100 | > 500 |  | 100 to 500 |
| C=C(CO)C(=O)Nc1cc2c(Nc3cccc(Cl)c3F)ncnc2cc1C#C[C@@]1(C)CCN(C)C1 [Compound 31, (R)—N-(4-((3-chloro-2-fluorophenyl)amino)-7-((1,3-dimethylpyrrolidin-3-yl)ethynyl)quinazolin-6-yl)-2-(hydroxymethyl)acrylamide] | ≤ 50 | 50 to 100 | 100 to 500 |  |
| C=CC(=O)Nc1cc2c(Nc3ccc(Cl)c(Cl)c3F)ncnc2cc1C#C[C@]12C[C@H]1CN(C)C2 [Compound 33, N-(4-((3,4-dichloro-2-fluorophenyl)amino)-7-(((1S,5R)-3-methyl-3-azabicyclo[3.1.0]hexan-1-yl)ethynyl)quinazolin-6-yl)acrylamide] | ≤ 50 | ≤ 50 | ≤ 50 |  |
| C=CC(=O)Nc1cc2c(Nc3ccc(Cl)c(Cl)c3F)ncnc2cc1C#C[C@@]12C[C@@H]1CN(C)C2 [Compound 34] | ≤ 50 | ≤ 50 | ≤ 50 |  |
| C=CC(=O)Nc1cc2c(Nc3cccc(Cl)c3F)ncnc2cc1C#C[C@]1(OC)CCN(C)C1 [Compound 36, (R)—N-(4-((3-chloro-2-fluorophenyl)amino)-7-((3-methoxy-1-methylpyrrolidin-3-yl)ethynyl)quinazolin-6-yl)acrylamide] | ≤ 50 | ≤ 50 | ≤ 50 |  |
| C=CC(=O)Nc1cc2c(Nc3ccc(Oc4ccccc4)cc3)ncnc2cc1C#C[C@@]12C[C@@H]1CN(C)C2 [Compound 40, N-(7-(((1R,5S)-3-methyl-3-azabicyclo[3.1.0]hexan-1-yl)ethynyl)-4-((4-phenoxyphenyl)amino)quinazolin-6-yl)acrylamide] | 100 to 500 | ≤ 50 | 100 to 500 |  |
| CCC(=O)Nc1cc2c(Nc3cccc(Cl)c3F)ncnc2cc1C#C[C@@]1(C)CCN(C)C1 [Compound 22, (R)—N-(4-((3-chloro-2-fluorophenyl)amino)-7-((1,3-dimethylpyrrolidin-3-yl)ethynyl)quinazolin-6-yl)propionamide] |  | > 500 |  | > 500 |
| C=CC(=O)Nc1cc2c(Nc3cc(Cl)ccc3F)ncnc2cc1C#CC1(C)COC1 [Compound 29, N-(4-((5-chloro-2-fluorophenyl)amino)-7-((3-methyloxetan-3-yl)ethynyl)quinazolin-6-yl)acrylamide] | 100 to 500 | 100 to 500 | > 500 |  |
| C=CC(=O)Nc1cc2c(Nc3cccc(Cl)c3F)ncnc2cc1C#C[C@]12C[C@H]1CN(C(C)C)C2 [Compound 42, N-(4-((3-chloro-2-fluorophenyl)amino)-7-(((1S,5R)-3-isopropyl-3-azabicyclo[3.1.0]hexan-1-yl)ethynyl)quinazolin-6-yl)acrylamide] | ≤ 50 | ≤ 50 | ≤ 50 |  |
| CN(C)C/C=C/C(=O)Nc1cc2c(Nc3cccc(Cl)c3F)ncnc2cc1C#CC1(C)CCOC1 (stereo not shown) [Compound 44, (E)-N-(4-((3-chloro-2-fluorophenyl)amino)-7-((3-methyltetrahydrofuran-3-yl)ethynyl)quinazolin-6-yl)-4-(dimethylamino)but-2-enamide] | ≤ 50 | ≤ 50 | ≤ 50 |  |
| C=CC(=O)Nc1cc2c(Nc3cccc(Cl)c3F)ncnc2cc1C#C[C@@]1(OC)CCN(C)C1 [Compound 35, (S)—N-(4-((3-chloro-2-fluorophenyl)amino)-7-((3-methoxy-1-methylpyrrolidin-3-yl)ethynyl)quinazolin-6-yl)acrylamide] | ≤ 50 | ≤ 50 | ≤ 50 |  |
| CN1C[C@H]2C[C@@]2(C#Cc2cc3ncnc(Nc4cccc(Cl)c4F)c3cc2NC(=O)C#CCN2CCOCC2)C1 [Compound 18, N-(4-((3-chloro-2-fluorophenyl)amino)-7-(((1R,5S)-3-methyl-3-azabicyclo[3.1.0]hexan-1-yl)ethynyl)quinazolin-6-yl)-4-morpholinobut-2-ynamide] |  | ≤ 50 |  | ≤ 50 |
| C/C=C/C(=O)Nc1cc2c(Nc3cccc(Cl)c3F)ncnc2cc1C#C[C@@]1(C)CCN(C)C1 [Compound 27, (R,E)-N-(4-((3-chloro-2-fluorophenyl)amino)-7-((1,3-dimethylpyrrolidin-3-yl)ethynyl)quinazolin-6-yl)but-2-enamide] | 100 to 500 | > 500 | > 500 |  |
